Results from patent publication US9403813B2, “Azetidine amide derivatives as orexin receptor antagonists” (ACTELION PHARMACEUTICALS LTD, priority 2013, dated 2016).

Key:
rat [1] = details: cited from earlier work
humans = details: primary insomnia; cited from earlier work
rat [2] = details: cited from earlier work; remark: listed apart in the source
[3] = test system: amyloid precursor protein transgenic mice; details: after acute sleep restriction, APP transgenic mice; cited from earlier work
mouse = details: administered chronically; cited from earlier work
rats [4] = details: fasted hungry rats exposed to food odors; cited from earlier work
rats [5] = details: cited from earlier work
rats [6] = details: rats treated with the compound; cited from earlier work
rat [7] = details: cited from earlier work; remark: listed apart in the source
human orexin-2 receptor = human orexin-2 receptor (Homo sapiens (Human), UniProt O43614); assay: Intracellular calcium measurements (FLIPR), antagonism of orexin-A response; assay type: cell-based; details: CHO cells expressing human orexin-2 receptor, 3 nM orexin-A, geometric mean if determined several times, read-out: IC50 OX2
Sequence of human orexin-2 receptor (O43614 whole entry): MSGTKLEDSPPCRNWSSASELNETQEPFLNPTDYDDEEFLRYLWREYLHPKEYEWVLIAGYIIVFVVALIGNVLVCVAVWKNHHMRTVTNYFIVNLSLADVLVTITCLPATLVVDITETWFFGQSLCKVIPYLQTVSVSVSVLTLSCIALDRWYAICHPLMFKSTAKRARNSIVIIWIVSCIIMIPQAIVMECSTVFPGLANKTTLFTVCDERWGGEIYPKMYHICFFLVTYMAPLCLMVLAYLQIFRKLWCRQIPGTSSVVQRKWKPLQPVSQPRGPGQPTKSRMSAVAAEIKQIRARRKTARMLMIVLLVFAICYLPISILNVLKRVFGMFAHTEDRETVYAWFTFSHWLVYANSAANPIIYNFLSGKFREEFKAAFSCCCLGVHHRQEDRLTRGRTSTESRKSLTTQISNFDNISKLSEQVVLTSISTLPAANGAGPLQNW
Outline: (§1)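 CHO cells expressing human OX1 or OX2 receptor, loaded with fluo-4 AM plus probenecid, preincubated with antagonist 120 min before 3 nM orexin-A challenge. FLIPR calcium peak heights compared with agonist-plus-vehicle response. IC50 possibly normalized to on-plate reference; geometric mean of repeat determinations.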

human orexin-1 receptor = human orexin-1 receptor (Homo sapiens (Human), UniProt O43613); assay: as above; assay type: cell-based; details: CHO cells expressing human orexin-1 receptor, 3 nM orexin-A, geometric mean if determined several times, read-out: IC50 OX1
Sequence of human orexin-1 receptor (O43613 whole entry): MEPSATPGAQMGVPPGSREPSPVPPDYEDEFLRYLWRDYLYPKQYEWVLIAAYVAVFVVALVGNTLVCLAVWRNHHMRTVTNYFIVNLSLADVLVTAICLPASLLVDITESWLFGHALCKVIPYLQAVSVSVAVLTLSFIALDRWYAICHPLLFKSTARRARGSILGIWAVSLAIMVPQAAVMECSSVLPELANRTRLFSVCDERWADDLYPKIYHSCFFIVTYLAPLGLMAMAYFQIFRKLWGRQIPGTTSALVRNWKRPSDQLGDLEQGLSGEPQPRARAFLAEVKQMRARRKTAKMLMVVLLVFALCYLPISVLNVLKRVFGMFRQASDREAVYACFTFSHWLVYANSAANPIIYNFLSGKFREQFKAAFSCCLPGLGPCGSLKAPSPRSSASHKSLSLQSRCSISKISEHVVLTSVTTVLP
Outline: as §1

rodents [8] = details: cited from earlier work
rodents [9] = details: cited from earlier work; remark: listed apart in the source

| SMILES | IC50 (human orexin-2 receptor) [nM] | IC50 (human orexin-1 receptor) [nM] | also measured |
| --- | --- | --- | --- |
| CNC(=O)[C@@H](c1ccccc1)N1CCc2cc(OC)c(OC)cc2[C@@H]1CCc1ccc(C(F)(F)F)cc1 [(2R)-2-{(1S)-6,7-dimethoxy-1-[2-(4-trifluoromethyl-phenyl)-ethyl]-3,4-dihydro-1H-isoquinolin-2-yl}-N-methyl-2-phenyl-acetamide] | – | – | activity in fear-potentiated startle paradigm (rat [1]): active; clinical efficacy (humans): showed clinical efficacy; alertness (active wake and locomotion) (rat [2]): decrease alertness; time spent in REM and NREM sleep (rat [2]): dose-dependently increase the time spent in both REM and NREM sleep; brain levels of amyloid-beta and plaque deposition [3]: decreased brain levels of amyloid-beta (Aβ) as well as Aβ plaque deposition; antidepressant-like activity (mouse): induce antidepressant-like activity; natural activation induced by orexin A (rats [4]): attenuate the natural activation induced by orexin A; cardiovascular responses to conditioned fear and novelty exposure (rats [5]): attenuated cardiovascular responses; learning and memory (rats [6]): intact declarative and non-declarative learning and memory; activity in nicotine self-administration (rat [7]): displayed pharmacological activity |
| Cc1c(Cl)cccc1-c1nc([C@@H]2CCN2C(=O)c2cc(F)ccc2-c2ncccn2)no1 [Example 115, {(S)-2-[5-(3-Chloro-2-methyl-phenyl)-[1,2,4]oxadiazol-3-yl]-azetidin-1-yl}-(5-fluoro-2-pyrimidin-2-yl-phenyl)-methanone] | 122 | 984 | – |
| COc1cc(C(=O)N2CC[C@H]2c2noc(-c3cccc(Cl)c3C)n2)c(-c2ncccn2)cc1C [Example 116, {(S)-2-[5-(3-Chloro-2-methyl-phenyl)-[1,2,4]oxadiazol-3-yl]-azetidin-1-yl}-(5-methoxy-4-methyl-2-pyrimidin-2-yl-phenyl)-methanone] | 5 | 561 | – |
| Cc1ccc(-c2ncccn2)c(C(=O)N2CC[C@H]2c2noc(-c3cccc(Cl)c3C)n2)c1 [Example 117, {(S)-2-[5-(3-Chloro-2-methyl-phenyl)-[1,2,4]oxadiazol-3-yl]-azetidin-1-yl}-(5-methyl-2-pyrimidin-2-yl-phenyl)-methanone] | 32 | 606 | – |
| COc1c(Cl)cccc1-c1nc([C@@H]2CCN2C(=O)c2ccc(C)cc2-n2nccn2)no1 [Example 118, {(S)-2-[5-(3-Chloro-2-methoxy-phenyl)-[1,2,4]oxadiazol-3-yl]-azetidin-1-yl}-(4-methyl-2-[1,2,3]triazol-2-yl-phenyl)-methanone] | 4 | 81 | – |
| COc1c(Cl)cccc1-c1nc([C@@H]2CCN2C(=O)c2ccc(Cl)cc2-n2nccn2)no1 [Example 119, {(S)-2-[5-(3-Chloro-2-methoxy-phenyl)-[1,2,4]oxadiazol-3-yl]-azetidin-1-yl}-(4-chloro-2-[1,2,3]triazol-2-yl-phenyl)-methanone] | 4 | 38 | – |
| Cc1ccc(-n2nccn2)c(C(=O)N2CC[C@H]2c2nnc(-c3ccccc3)[nH]2)c1 [Example 120, (5-Methyl-2-[1,2,3]triazol-2-yl-phenyl)-[(S)-2-(5-phenyl-4H-[1,2,4]triazol-3-yl)-azetidin-1-yl]-methanone] | 450 | 13400 | – |
| Cc1ccc(C(=O)N2CC[C@H]2c2nnc(-c3ccccc3)[nH]2)c(-n2nccn2)c1 [Example 121, (4-Methyl-2-[1,2,3]triazol-2-yl-phenyl)-[(S)-2-(5-phenyl-4H-[1,2,4]triazol-3-yl)-azetidin-1-yl]-methanone] | 322 | 9070 | – |
| CCOc1ncccc1-c1nnc([C@@H]2CCN2C(=O)c2cc(C)ccc2-n2nccn2)[nH]1 [Example 122, {(S)-2-[5-(2-Ethoxy-pyridin-3-yl)-4H-[1,2,4]triazol-3-yl]-azetidin-1-yl}-(5-methyl-2-[1,2,3]triazol-2-yl-phenyl)-methanone] | 92 | 2300 | – |
| CCOc1ncccc1-c1nnc([C@@H]2CCN2C(=O)c2ccc(C)cc2-n2nccn2)[nH]1 [Example 123, {(S)-2-[5-(2-Ethoxy-pyridin-3-yl)-4H-[1,2,4]triazol-3-yl]-azetidin-1-yl}-(4-methyl-2-[1,2,3]triazol-2-yl-phenyl)-methanone] | 316 | 2040 | – |
| Cc1ccc(-n2nccn2)c(C(=O)N2CC[C@H]2c2nnc(-c3cccc(Cl)c3C)[nH]2)c1 [Example 124, {(S)-2-[5-(3-Chloro-2-methyl-phenyl)-4H-[1,2,4]triazol-3-yl]-azetidin-1-yl}-(5-methyl-2-[1,2,3]triazol-2-yl-phenyl)-methanone] | 238 | 5880 | – |
| Cc1ccc(-n2nccn2)c(C(=O)N2CC[C@H]2c2nnc(-c3ccccc3OC(F)(F)F)[nH]2)c1 [Example 125, (5-Methyl-2-[1,2,3]triazol-2-yl-phenyl)-{(S)-2-[5-(2-trifluoromethoxy-phenyl)-4H-[1,2,4]triazol-3-yl]-azetidin-1-yl}-methanone] | 56 | 2430 | – |
| COc1c(Cl)cccc1-c1nnc([C@@H]2CCN2C(=O)c2cc(C)ccc2-n2nccn2)[nH]1 [Example 126, {(S)-2-[5-(3-Chloro-2-methoxy-phenyl)-4H-[1,2,4]triazol-3-yl]-azetidin-1-yl}-(5-methyl-2-[1,2,3]triazol-2-yl-phenyl)-methanone] | 170 | 7230 | – |
| Cc1ccc(C(=O)N2CC[C@H]2c2nnc(-c3ccccc3OC(F)(F)F)[nH]2)c(-n2nccn2)c1 [Example 127, (4-Methyl-2-[1,2,3]triazol-2-yl-phenyl)-{(S)-2-[5-(2-trifluoromethoxy-phenyl)-4H-[1,2,4]triazol-3-yl]-azetidin-1-yl}-methanone] | 11 | 866 | – |
| Cc1cc(C(=O)N2CC[C@H]2c2nnc(-c3ccccc3OC(F)(F)F)[nH]2)c(-n2nccn2)cc1C [Example 128, (4,5-Dimethyl-2-[1,2,3]triazol-2-yl-phenyl)-{(S)-2-[5-(2-trifluoromethoxy-phenyl)-4H-[1,2,4]triazol-3-yl]-azetidin-1-yl}-methanone] | 9 | 414 | – |
| COc1cc(C(=O)N2CC[C@H]2c2nnc(-c3ccccc3OC(F)(F)F)[nH]2)c(-n2nccn2)cc1C [Example 129, (5-Methoxy-4-methyl-2-[1,2,3]triazol-2-yl-phenyl)-{(S)-2-[5-(2-trifluoromethoxy-phenyl)-4H-[1,2,4]triazol-3-yl]-azetidin-1-yl}-methanone] | 6 | 454 | – |
| Cc1cc(-n2nccn2)c(C(=O)N2CC[C@H]2c2nnc(-c3ccccc3OC(F)(F)F)[nH]2)cc1Cl [Example 130, (5-Chloro-4-methyl-2-[1,2,3]triazol-2-yl-phenyl)-{(S)-2-[5-(2-trifluoromethoxy-phenyl)-4H-[1,2,4]triazol-3-yl]-azetidin-1-yl}-methanone] | 5 | 245 | – |
| COc1cc(C(=O)N2CC[C@H]2c2nnc(-c3ccccc3OC(F)(F)F)[nH]2)c(-n2nccn2)cc1Cl [Example 131, (4-Chloro-5-methoxy-2-[1,2,3]triazol-2-yl-phenyl)-{(S)-2-[5-(2-trifluoromethoxy-phenyl)-4H-[1,2,4]triazol-3-yl]-azetidin-1-yl}-methanone] | 5 | 497 | – |
| O=C(c1ccc(Cl)cc1-n1nccn1)N1CC[C@H]1c1nnc(-c2ccccc2OC(F)(F)F)[nH]1 [Example 132, (4-Chloro-2-[1,2,3]triazol-2-yl-phenyl)-{(S)-2-[5-(2-trifluoromethoxy-phenyl)-4H-[1,2,4]triazol-3-yl]-azetidin-1-yl}-methanone] | 16 | 315 | – |
| O=C(c1ccc(C(F)(F)F)cc1-n1nccn1)N1CC[C@H]1c1nnc(-c2ccccc2OC(F)(F)F)[nH]1 [Example 133, (2-[1,2,3]Triazol-2-yl-4-trifluoromethyl-phenyl)-{(S)-2-[5-(2-trifluoromethoxy-phenyl)-4H-[1,2,4]triazol-3-yl]-azetidin-1-yl}-methanone] | 17 | 364 | – |
| Cc1ccc(-c2ccccc2)c(C(=O)N2CC[C@H]2c2nnc(-c3ccccc3OC(F)(F)F)[nH]2)c1 [Example 134, (4-Methyl-biphenyl-2-yl)-{(S)-2-[5-(2-trifluoromethoxy-phenyl)-4H-[1,2,4]triazol-3-yl]-azetidin-1-yl}-methanone] | 39 | 563 | – |
| Cc1ccc(-c2ncccn2)c(C(=O)N2CC[C@H]2c2nnc(-c3ccccc3OC(F)(F)F)[nH]2)c1 [Example 135, (5-Methyl-2-pyrimidin-2-yl-phenyl)-{(S)-2-[5-(2-trifluoromethoxy-phenyl)-4H-[1,2,4]triazol-3-yl]-azetidin-1-yl}-methanone] | 348 | 2000 | – |
| Cn1c(SCC(=O)N2CCC[C@H]2C(=O)Nc2ccccc2-c2ccccc2)nc2ccccc21 [N-Biphenyl-2-yl-1-{[(1-methyl-1H-benzimidazol-2-yl)sulfanyl]acetyl}-L-prolinamide] | – | – | nicotine-reinstatement for a conditioned reinforcer (rodents [8]): inhibited nicotine-reinstatement for a conditioned reinforcer; behavioral and molecular changes induced by repeated amphetamine (rodents [9]): reduced behavioral (locomotor sensitization) and molecular (transcriptional responses) changes |
